# According to ChEMBL document CHEMBL1126767, “Three-dimensional quantitative structure-activity relationship of angiotesin-converting enzyme and thermolysin inhibitors. II. A comparison of CoMFA models incorporating molecular orbital fields and desolvation free energies based on active-analog and complementary-receptor-field alignment rules” (J Med Chem, 1993):
# Square brackets hold non-standard residues; d marks the D form. Peptide text beside a SMILES is read from it. ξ: configuration not given here. ξC = NC(CS)C(=O)O; Mpa = O=C(O)CCS
# Target: Angiotensin-converting enzyme (Homo sapiens, UniProt P12821)
# Assay: Inhibitory activity against angiotensin converting enzyme (ACE)
# Type: functional
row,SMILES,IC50 [µM]
1,O=C(CCS)N[C@@H](Cc1c[nH]c2ccccc12)C(=O)O (stereo in doubt; form 1),> 1000
2,O=C(CCS)N[C@@H](CS)C(=O)O,67.6
3,CC(S)C(=O)N[C@@H](CS)C(=O)O (stereo in doubt; form 1),537
4,NCCCCC(NC(=O)OCc1ccccc1)C(=O)N[C@H](CCC(=O)N1c2ccccc2C[C@H]1C(=O)O)C(=O)O (some centres undefined),2.51
5,CC(C)(S)C(=O)N[C@@H](CS)C(=O)O [BUCILLAMINE],7240
6,CS[C@H]1C[C@@H](C(=O)O)N(C(=O)[C@H](CCCCN)OP(=O)(O)CCCCc2ccccc2)C1,0.00191
7,NCCCC[C@H](OP(=O)(O)CCCCc1ccccc1)C(=O)N1C[C@@H](c2ccccc2)C[C@H]1C(=O)O,0.000132
8,O=C(O)CNC(=O)CCS,2.82
9,C[C@H](NC(CCc1ccc(O)cc1)C(=O)O)C(=O)N1CCC[C@H]1C(=O)O (some centres undefined),0.00282
10,O=C(CS)N[C@@H](Cc1c[nH]c2ccccc12)C(=O)O,0.759
11,C[C@H](NC(=O)CCS)C(=O)N1CCC[C@H]1C(=O)O ([Mpa]-Ala-Pro-OH),2.57
12,O=C(O)CCn1c(=O)n2n(c1=O)[C@H](C(=O)O)C=CC2,0.001
13,O=C(O)C[C@H](NC(=O)CS)C(=O)O,77.6
14,O=C(CCS)N[C@@H](Cc1cnc[nH]1)C(=O)O,229
15,CS[C@@H]1C[C@@H](C(=O)O)N(C(=O)[C@H](CCCCN)OP(=O)(O)CCCCc2ccccc2)C1,0.000525
16,C[C@H](NC(=O)CCS)C(=O)O,0.851
17,C[C@H](NC(CCc1ccccc1)C(=O)O)C(=O)N(CC(=O)O)C1Cc2ccccc2C1 (some centres undefined),0.0398
18,O=C(O)CCC(=O)N[C@@H](Cc1ccccc1)C(=O)O,550
19,CC(CS)C(=O)N[C@@H](Cc1c[nH]c2ccccc12)C(=O)O (stereo in doubt; 30A),0.0347
20,O=C(O)[C@@H]1CCCN1CCCS,240
21,C[C@H](NCCCc1ccccc1)C(=O)N1CCC[C@H]1C(=O)O,5.75
22,O=C(NC(Cc1ccccc1)CP(=O)(O)CC(=O)N1CCC[C@H]1C(=O)O)c1ccccc1 (some centres undefined),0.01
23,NCCCC[C@H](OP(=O)(O)CCCCc1ccccc1)C(=O)N1CC2(C[C@H]1C(=O)O)SCCS2,0.000631
24,CC(C)[C@H](N)C(=O)N1CCC[C@H]1C(=O)O (H-Val-Pro-OH),417
25,O=C(O)CCC(=O)N1CCC[C@H]1C(=O)O,33.1
26,NCCCC[C@H](OP(=O)(O)CCCCc1ccccc1)C(=O)N1C[C@@H](O)C[C@H]1C(=O)O,0.0158

row,SMILES,IC50 [µM]
1,CC(C)(S)C(=O)N[C@@H](Cc1c[nH]c2ccccc12)C(=O)O,38
2,C[C@H](NP(=O)(O)O)C(=O)N1CCC[C@H]1C(=O)O,0.776
3,O=C(O)[C@@H]1CCCN1C(=O)CCS (stereo in doubt; 34),0.2
4,CCC(C)[C@H](NC(=O)CCC(=O)O)C(=O)O (some centres undefined),1050
5,C[C@H](CC(CCc1ccccc1)C(=O)O)C(=O)N1c2ccccc2C[C@H]1C(=O)O (some centres undefined),0.00479
6,NCCCCC(N)C(=O)N[C@H](CCC(=O)N1[C@H](C(=O)O)C[C@@H]2CCCC[C@@H]21)C(=O)O (some centres undefined),0.012
7,CC[C@H](C)[C@H](N)C(=O)N1CCC[C@H]1C(=O)O (H-Ile-Pro-OH),129
8,CC(C)C[C@H](NC(=O)CCC(=O)O)C(=O)O,617
9,O=C(O)CN1C(=O)C(NC(CCc2ccccc2)C(=O)O)CCc2ccccc21 (centres undefined),0.0017
10,CC[C@@H](C)[C@H](C)C(=O)N[C@@H](Cc1ccccc1)C(=O)O,933
11,NCCC[C@H](NC(CCc1ccccc1)C(=O)O)C(=O)N1CCC[C@H]1C(=O)O (some centres undefined),0.00219
12,C[C@@H](N)C(=O)N[C@@H](Cc1ccccc1)C(=O)O (stereo in doubt; 53),52.5
13,C[C@H](NC(C(=O)O)C1CCCN1C(=O)c1ccccc1)C(=O)N1CCC[C@H]1C(=O)O (some centres undefined),0.00288
14,C[C@H](NC(=O)CCC(=O)O)C(=O)O,1350
15,C[C@H](NC(CCc1ccccc1)C(=O)O)C(=O)N1CC2CCCCC2[C@H]1C(=O)O (some centres undefined),0.00219
16,O=C(O)[C@@H]1CCCN1C(=O)CP(=O)(O)O,8.32
17,O=C(O)CCC(=O)NCC(=O)O,2000
18,Cc1ccc(N(CC(=O)O)C(=O)C(C)N)cc1 (centres undefined),2.57
19,CC(CS)C(=O)N[C@@H](Cc1c[nH]c2ccccc12)C(=O)O (stereo in doubt),33.1
20,C[C@H](NC(CCc1ccccc1)C(N)=O)C(=O)N1CCC[C@H]1C(=O)O (some centres undefined),25.7
21,C[C@H](NC(CCN)C(=O)O)C(=O)N1CCC[C@H]1C(=O)O (some centres undefined),0.324
22,O=C(O)[C@@H]1CCCN1C(=O)C1CCC1S (some centres undefined),0.049
23,NCCCC[C@H](OP(=O)(O)CCCCc1ccccc1)C(=O)N(CC(=O)O)c1ccc2c(c1)OCO2,0.000115
24,CC(C)[C@H](NC(=O)CCS)C(=O)O,1.58
25,NCCCC[C@H](OP(=O)(O)CCCCc1ccccc1)C(=O)N1C[C@@H](Cc2ccccc2)C[C@H]1C(=O)O,0.000891
26,CC(C)(C)OC(=O)[C@@H]1CCCN1C(=O)CCS,38.9

row,SMILES,IC50 [µM]
1,O=C(CCS)N[C@@H](Cc1c[nH]c2ccccc12)C(=O)O (stereo in doubt; form 2),4.57
2,O=C(O)[C@@H]1C=CCn2c(=O)n(CS)c(=O)n21,0.708
3,O=C(O)CCC(=O)CCS,2.4
4,CC(C)[C@H](NC(=O)CCC(=O)O)C(=O)O,1100
5,O=C(O)[C@@H]1C=CCN1C(=O)CCS,0.646
6,N[C@@H](Cc1ccccc1)C(=O)N[C@H](CCC(=O)N1[C@H](C(=O)O)C[C@@H]2CCCC[C@@H]21)C(=O)O,0.219
7,O=C(O)[C@@H]1CCCN1C(=O)CCP(=O)(O)O,47.9
8,NCCCC[C@H](OP(=O)(O)CCCCc1ccccc1)C(=O)N1C[C@@H](C2CCCCC2)C[C@H]1C(=O)O,0.00049
9,C[C@H](NC(CCc1ccccc1)P(=O)(O)O)C(=O)N1CCC[C@H]1C(=O)O (some centres undefined),0.0513
10,C[C@H](NP(=O)(O)CCc1ccccc1)C(=O)N1CCC[C@H]1C(=O)O,0.00708
11,C[C@H](NC(CCC(=O)Nc1ccccc1)C(=O)O)C(=O)N1CCC[C@H]1C(=O)O (some centres undefined),0.00525
12,O=C(CS)N[C@@H](Cc1c[nH]cn1)C(=O)O,257
13,NCC(=O)N1CCC[C@H]1C(=O)O [GLYCYL PROLINE] (H-Gly-Pro-OH),447
14,NCCCC[C@H](OP(=O)(O)CCCCc1ccccc1)C(=O)N1c2ccccc2C[C@H]1C(=O)O,0.000295
15,O=C(N[C@H](CCC(=O)N1CCC[C@H]1C(=O)O)C(=O)O)C1CCCN1C(=O)OCc1ccccc1 (some centres undefined),2.51
16,CC(S)C(=O)N[C@@H](CS)C(=O)O (stereo in doubt; form 2),7.94
17,O=C(N[C@H](CCC(=O)N1[C@H](C(=O)O)C[C@@H]2CCCC[C@@H]21)C(=O)O)C1CCCN1C(=O)OCc1ccccc1 (some centres undefined),0.0151
18,C[C@H](NCC(=O)O)C(=O)N1CCC[C@H]1C(=O)O,2.4
19,O=C(O)[C@H]1CCCN1C(=O)CCS,1820
20,CC(S)C(=O)N[C@@H](Cc1c[nH]c2ccccc12)C(=O)O (stereo in doubt; form 2),0.0646
21,CN(C(=O)CCS)[C@@H](Cc1ccccc1)C(=O)O,30.9
22,O=C(O)[C@@H]1CCCN2C(=O)C[C@@H](CS)C(=O)N12,0.0708
23,NCCCC[C@H](OP(=O)(O)CCCCc1ccccc1)C(=O)N1CCC[C@H]1C(=O)O [CERONAPRIL],0.0363
24,CCN(C[C@H](CCc1ccccc1)C(=O)O)C(=O)N1Cc2ccccc2C[C@H]1C(=O)O,0.00646
25,NC(Cc1ccccc1)C(=O)N[C@H](CCC(=O)N1[C@H](C(=O)O)C[C@@H]2CCCC[C@@H]21)C(=O)O (some centres undefined),0.1
26,O=C(O)[C@@H]1CCCN1C(=O)CCS (stereo in doubt; 56),17

row,SMILES,IC50 [µM]
1,C[C@@]1(CCS)C(=O)N2CC=C[C@@H](C(=O)O)N2C1=O,0.1
2,O=C(NC(Cc1ccccc1)C(=O)N[C@H](CCC(=O)N1c2ccccc2C[C@H]1C(=O)O)C(=O)O)OCc1ccccc1 (some centres undefined),0.000251
3,NCCCC[C@H](OP(=O)(O)CCCCc1ccccc1)C(=O)N(CC(=O)O)C1CCCCC1,0.000295
4,O=C(O)[C@@H]1CCC(=O)N1CCCS,646
5,O=C(O)CCCCCS,1100
6,O=C(CS)N[C@@H](CS)C(=O)O,19.1
7,NCCCC[C@H](OP(=O)(O)CCCCc1ccccc1)C(=O)N1C[C@H](O)C[C@H]1C(=O)O,0.000871
8,NCCCC[C@H](OP(=O)(O)CCCCc1ccccc1)C(=O)N1C[C@H](C2CCCCC2)C[C@H]1C(=O)O,0.00324
9,NCCCC[C@H](OP(=O)(O)CCCCc1ccccc1)C(=O)N1C[C@H](Sc2ccccc2)C[C@H]1C(=O)O,0.000776
10,CSC1(SC)C[C@@H](C(=O)O)N(C(=O)[C@H](CCCCN)OP(=O)(O)CCCCc2ccccc2)C1,0.00257
11,O=C(O)C(CCc1ccccc1)N[C@H]1CCN2CCC[C@@H](C(=O)O)N2C1=O (some centres undefined),0.0562
12,C[C@H](CCC(=O)O)C(=O)N1CCC[C@H]1C(=O)O,4.9
13,COc1ccc(N(CC(=O)O)C(=O)[C@H](CCCCN)OP(=O)(O)CCCCc2ccccc2)cc1OC,0.000288
14,C[C@H](NC(CCC(=O)Nc1ccc(I)cc1)C(=O)O)C(=O)N1CCC[C@H]1C(=O)O (some centres undefined),0.000229
15,CC(C)(S)C(=O)N[C@@H](CC(=O)O)C(=O)O,3470
16,C[C@@H](NC(=O)C(S)Cc1ccccc1)C(=O)N1CCC[C@H]1C(=O)O (some centres undefined),0.0501
17,COP(=O)(O)C(CCc1ccccc1)N[C@@H](C)C(=O)N1CCC[C@H]1C(=O)O (some centres undefined),0.437
18,NCC(=O)N[C@@H](Cc1ccccc1)C(=O)O (H-Gly-Phe-OH),603
19,C[C@H](CC(=O)O)C(=O)N1CCC[C@H]1C(=O)O,10.2
20,O=C(O)CCc1cc(O)c2n(c1=O)[C@H](C(=O)O)CC2,0.457
21,CN(CC(=O)O)C(=O)CCS,3.02
22,O=C(CCS)N[C@@H](Cc1ccccc1)C(=O)O,0.427
23,NCCCC[C@H](OP(=O)(O)CCCCc1ccccc1)C(=O)N(CC(=O)O)c1ccccc1,0.00107
24,NC(CS)C(=O)N1CCC[C@H]1C(=O)O (some centres undefined) (H-[ξC]-Pro-OH),0.0631
25,CC(S)C(=O)N[C@@H](Cc1c[nH]c2ccccc12)C(=O)O (stereo in doubt; form 1),0.363
26,C[C@H](NC(CCCNC(=O)OCc1ccccc1)C(=O)O)C(=O)N1CCC[C@H]1C(=O)O (some centres undefined),0.00288
